The source made the active and inactive calls.
Key:
[1] = AlphaScreen signal interference compounds, dose response, artefact control for ARNT-TACC3 interaction inhibitor project, biochemical, luminescence, cherry-pick (AID 651705); format: functional;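 also: AlphaScreen bead proximity signal that flags compounds interfering with the detection technology; potency reflects signal decrease which marks the compound as an assay artifact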
[2] = biological target: Potassium voltage-gated channel subfamily KQT member 2 (Rattus norvegicus, UniProt O88943); assay: KCNQ2 potassium channel inhibitors, dose response, cell-based, automated electrophysiology, set II, rat KCNQ2 (AID 588637); format: functional
SUMO-activating enzyme [3] = biological target: T1, SUMO-activating enzyme (Homo sapiens, UniProt Q9UBT2); assay: SUMOylation inhibitor hit validation, confirmation, SUMOylation inhibitor project, biochemical, AlphaScreen (AID 2018); format: functional
[4] = biological target: DNA damage-inducible transcript 3 protein (Mus musculus, UniProt P35639); format: functional, Cricetulus griseus
SUMO-activating enzyme [5] = biological target: T1, SUMO-activating enzyme; assay: inhibitors of in vitro SUMOylation cascade, primary screen, biochemical, HTRF, uHTS (AID 2006); format: protein-complex assay
[6] = growth suppression of PTEN-null colon cells, dose response, cell-based, HCT116 PTEN knockout (AID 1047); format: functional;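 also: HCT116 colon tumor cells with PTEN knocked out; cells exposed to compound for 60 hours before readout; potency for loss of cell viability measured by luminescence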
INS1 = assay: beta cell apoptosis inhibitors, cytokine rescue, dose response, luminescence, retest (AID 449756); format: functional, cell-based; conditions: Rattus norvegicus;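 also: cell death triggered by IL-1 beta plus TNF-alpha plus IFN-gamma mixture; protective hits raise ATP signal compared with cytokine alone wells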
[7] = biological target: Induced myeloid leukemia cell differentiation protein Mcl-1 (Homo sapiens, UniProt Q07820); format: functional
[8] = growth suppression of beta-catenin-knockout colon cells, dose response, cell-based, HCT116, human colon tumor (AID 1045); format: functional;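 also: HCT116 colon tumor cells with beta catenin knocked out; cells exposed to compound for 60 hours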
Melanocortin receptor 4 = Melanocortin receptor 4 (Homo sapiens, UniProt P32245); format: functional, cell-based;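 also: Cell-based assay with luminescence read-out, confirmatory dose-response testing for agonist activity of biased ligands at MC4R; human U2OS cells with tagged receptor and beta-arrestin; potency of agonists that increase receptor coupling to beta-arrestin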
[9] = biological target: T2, Eukaryotic translation initiation factor 2-alpha kinase 3 (Homo sapiens, UniProt Q9NZJ5); assay: Dose response cell-based high-throughput screening assay to measure PERK inhibition. [Related pubchem assays: 1416 ]; format: functional
T2 sequence (Q9NZJ5 whole entry): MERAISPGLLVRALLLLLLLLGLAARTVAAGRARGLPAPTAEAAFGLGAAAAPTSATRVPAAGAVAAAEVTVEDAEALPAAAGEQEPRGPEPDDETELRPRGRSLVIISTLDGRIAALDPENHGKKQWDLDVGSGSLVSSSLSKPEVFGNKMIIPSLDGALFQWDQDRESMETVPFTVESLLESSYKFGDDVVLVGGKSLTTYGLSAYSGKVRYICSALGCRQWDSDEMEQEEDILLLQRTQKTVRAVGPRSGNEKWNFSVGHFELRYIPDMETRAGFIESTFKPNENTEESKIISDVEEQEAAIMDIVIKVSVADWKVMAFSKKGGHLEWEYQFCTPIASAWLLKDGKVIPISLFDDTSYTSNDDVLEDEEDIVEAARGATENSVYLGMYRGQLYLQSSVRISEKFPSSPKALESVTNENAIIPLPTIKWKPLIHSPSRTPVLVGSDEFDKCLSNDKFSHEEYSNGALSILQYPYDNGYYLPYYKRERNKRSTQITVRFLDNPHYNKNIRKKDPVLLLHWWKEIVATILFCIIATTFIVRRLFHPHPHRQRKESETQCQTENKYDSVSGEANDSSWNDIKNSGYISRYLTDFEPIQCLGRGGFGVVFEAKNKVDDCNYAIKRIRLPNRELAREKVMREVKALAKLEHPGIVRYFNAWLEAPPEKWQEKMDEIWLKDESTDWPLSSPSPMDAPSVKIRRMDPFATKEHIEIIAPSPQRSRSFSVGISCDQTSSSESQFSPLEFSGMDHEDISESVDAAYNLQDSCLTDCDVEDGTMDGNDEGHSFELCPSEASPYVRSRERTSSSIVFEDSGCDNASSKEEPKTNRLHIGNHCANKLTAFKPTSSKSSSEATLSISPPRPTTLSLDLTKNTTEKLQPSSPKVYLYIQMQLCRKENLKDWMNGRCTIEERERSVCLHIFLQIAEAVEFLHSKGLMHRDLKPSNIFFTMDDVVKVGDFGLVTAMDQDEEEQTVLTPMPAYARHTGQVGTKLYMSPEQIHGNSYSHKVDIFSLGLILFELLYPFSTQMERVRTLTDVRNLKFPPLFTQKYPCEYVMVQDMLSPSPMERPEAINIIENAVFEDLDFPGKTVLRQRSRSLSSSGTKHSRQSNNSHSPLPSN

[10] = biological target: T3, Apoptotic protease-activating factor 1 (Homo sapiens, UniProt O14727); assay: SAR analysis of small molecule Activators of Apaf-1 in a Fluorescent assay.; format: functional; conditions: read-out: EC50_Mean;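 also: caspase-3 cleavage of fluorogenic Rh110 DEVD substrate downstream of apoptosome activation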
T3 sequence (O14727 whole entry): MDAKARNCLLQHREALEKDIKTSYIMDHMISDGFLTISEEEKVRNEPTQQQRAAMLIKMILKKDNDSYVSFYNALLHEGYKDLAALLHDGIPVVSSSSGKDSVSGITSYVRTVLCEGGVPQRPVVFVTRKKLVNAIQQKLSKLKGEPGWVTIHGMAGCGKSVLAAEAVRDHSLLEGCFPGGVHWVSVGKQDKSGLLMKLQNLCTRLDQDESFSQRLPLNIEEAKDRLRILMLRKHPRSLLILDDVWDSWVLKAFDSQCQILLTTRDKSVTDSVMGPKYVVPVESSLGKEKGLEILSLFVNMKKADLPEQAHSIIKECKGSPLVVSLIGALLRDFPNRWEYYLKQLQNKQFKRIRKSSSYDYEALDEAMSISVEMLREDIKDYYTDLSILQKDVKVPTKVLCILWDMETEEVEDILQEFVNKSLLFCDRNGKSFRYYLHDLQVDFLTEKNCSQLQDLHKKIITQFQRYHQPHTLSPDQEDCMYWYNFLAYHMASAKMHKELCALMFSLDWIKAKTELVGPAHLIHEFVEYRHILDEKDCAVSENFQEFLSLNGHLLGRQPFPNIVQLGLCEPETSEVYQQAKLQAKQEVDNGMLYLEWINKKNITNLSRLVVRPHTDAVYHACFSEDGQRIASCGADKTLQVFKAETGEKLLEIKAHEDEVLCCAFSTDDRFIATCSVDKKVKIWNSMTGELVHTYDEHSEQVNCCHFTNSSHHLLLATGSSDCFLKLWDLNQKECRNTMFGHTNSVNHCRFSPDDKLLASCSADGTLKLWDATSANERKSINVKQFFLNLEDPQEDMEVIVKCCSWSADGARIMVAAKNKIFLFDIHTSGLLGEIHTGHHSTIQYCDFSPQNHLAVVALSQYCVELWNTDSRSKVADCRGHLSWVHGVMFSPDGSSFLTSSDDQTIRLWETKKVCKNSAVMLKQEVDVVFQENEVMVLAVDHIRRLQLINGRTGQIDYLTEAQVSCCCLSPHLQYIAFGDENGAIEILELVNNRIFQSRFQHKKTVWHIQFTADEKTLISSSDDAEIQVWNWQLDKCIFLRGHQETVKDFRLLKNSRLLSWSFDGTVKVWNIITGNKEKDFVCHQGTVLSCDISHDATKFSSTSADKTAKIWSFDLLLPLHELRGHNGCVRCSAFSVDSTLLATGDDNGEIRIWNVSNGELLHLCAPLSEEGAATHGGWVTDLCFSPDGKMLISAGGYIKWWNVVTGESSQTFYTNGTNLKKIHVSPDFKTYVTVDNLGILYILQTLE

[11] = biological target: T2, Eukaryotic translation initiation factor 2-alpha kinase 3; assay: Counterscreen assay for PERK inhibitors: Dose response cell-based high throughput screening assay to measure inhibition of PERK at 6 hours. [Related pubchem assays: 1522, 1416 ]; format: functional
[12] = biological target: Dual specificity protein phosphatase 3 (Homo sapiens, UniProt P51452); assay: VHR phosphatase inhibition, dose response, selectivity assay for STEP inhibitor project, biochemical (AID 602374); format: functional; conditions: read-out: IC50_Mean
[13] = biological target: Tyrosine-protein phosphatase non-receptor type 5 (Homo sapiens, UniProt P54829); assay: STEP phosphatase inhibitors, confirmation, biochemical, fluorescence intensity, uHTS hits (AID 602372); format: functional; conditions: read-out: IC50_Mean
[14] = biological target: Tyrosine-protein phosphatase non-receptor type 11 (Homo sapiens, UniProt Q06124); assay: SHP2 phosphatase inhibition, dose response, selectivity assay for STEP inhibitor project, biochemical (AID 602367); format: functional; conditions: read-out: IC50_Mean
[15] = biological target: T4, Carboxy-terminal domain RNA polymerase II polypeptide A small phosphatase 1 (Homo sapiens, UniProt Q9GZU7); assay: inhibitors of CTDSP1, concentration-response testing, biochemical assay, absorbance-based, actives from ultra-high-throughput screening (AID 540297); format: functional
T4 sequence (Q9GZU7 whole entry): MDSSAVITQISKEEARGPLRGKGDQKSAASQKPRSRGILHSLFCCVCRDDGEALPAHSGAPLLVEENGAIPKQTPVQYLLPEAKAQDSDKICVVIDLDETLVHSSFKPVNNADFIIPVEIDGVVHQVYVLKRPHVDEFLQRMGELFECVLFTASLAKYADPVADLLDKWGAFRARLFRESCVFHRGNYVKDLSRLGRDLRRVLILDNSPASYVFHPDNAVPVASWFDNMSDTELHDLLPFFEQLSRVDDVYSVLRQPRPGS

Streptococcus = assay: Group A Streptococcus viability loss, dose response, counter-screen for streptokinase expression inhibitor project, luminescence, BacTiterGlo (AID 1915); format: functional, organism-based;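 also: potency for reduction of bacterial viability or growth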
[16] = biological target: T5, Serine/threonine-protein phosphatase (Candida dubliniensis (strain CD36 / CBS 7987 / NCPF 3949 / NRRLY-17841) (Yeast), UniProt B9W6M3); assay: calcineurin pathway inhibitors in yeast reporter, dose response, S. cerevisiae, CDRE-lacZ, luminescence, secondary (AID 2388); format: functional, cell-based;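 also: yeast reporter cells carrying a calcineurin-responsive lacZ construct stimulated with calcium chloride; luminescent beta-galactosidase reporter signal in whole cells rather than isolated phosphatase activity; potency for inhibition where a drop in reporter signal means calcineurin blockade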
T5 sequence (B9W6M3 whole entry): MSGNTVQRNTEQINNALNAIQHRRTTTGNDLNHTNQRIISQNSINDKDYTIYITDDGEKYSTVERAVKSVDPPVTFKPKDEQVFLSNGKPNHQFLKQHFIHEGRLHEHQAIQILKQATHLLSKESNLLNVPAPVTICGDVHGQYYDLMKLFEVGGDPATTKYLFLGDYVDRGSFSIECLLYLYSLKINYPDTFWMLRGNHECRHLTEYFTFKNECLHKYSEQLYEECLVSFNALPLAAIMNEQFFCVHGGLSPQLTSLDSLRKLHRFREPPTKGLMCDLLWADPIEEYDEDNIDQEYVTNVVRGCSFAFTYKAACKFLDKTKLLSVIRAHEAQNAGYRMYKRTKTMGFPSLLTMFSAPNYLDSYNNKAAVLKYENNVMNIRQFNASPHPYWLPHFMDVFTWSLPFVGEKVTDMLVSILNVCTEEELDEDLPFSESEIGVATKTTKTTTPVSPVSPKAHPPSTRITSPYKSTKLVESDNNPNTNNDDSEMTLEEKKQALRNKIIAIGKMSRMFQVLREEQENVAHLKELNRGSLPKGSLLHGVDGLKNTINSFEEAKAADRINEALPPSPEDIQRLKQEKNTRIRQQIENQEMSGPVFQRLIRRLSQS

[17] = NIH-3T3 fibroblast cytotoxicity, dose response, cytotoxicity control for antifungal single agent project, cell-based, Alamar Blue, dry powder (AID 602188); format: functional
[18] = inhibitors of intracellular T. cruzi replication, confirmation, NIH3T3 host cells, beta-gal luminescence (AID 2044); format: functional, cell-based;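 also: intracellular parasites grown in NIH/3T3 mouse fibroblasts as host cells; luminescent beta-galactosidase reporter signal from transgenic T. cruzi replicating inside host cells; inhibitors lower the luminescence signal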
[19] = test system: Streptococcus sp. 'group A'; assay: growth inhibition of control SK(-) GAS strain, dose response, counter-screen for streptokinase expression inhibitor project, luminescence, kanamycin, BacTiterGlo, confirmation (AID 1900); format: functional, organism-based
[20] = NIH-3T3 fibroblast cytotoxicity, dose response, cytotoxicity control, cell-based, fluorescence, Alamar Blue, secondary assay (AID 2327); format: functional;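 also: NIH-3T3 mouse fibroblasts cultured with fluconazole at 8 µg/mL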
HEK293 = assay: inhibitors of LMP1-driven NF-kB reporter, dose response, cell-based, HEK293, luciferase, cherry-pick (AID 588343); format: functional; conditions: Homo sapiens
[21] = C. albicans growth with fluconazole, confirmation, fluorescence, retest (AID 2467); format: functional, cell-based
[22] = cytotoxicity toward NIH3T3 fibroblasts, dose response, counter-screen, cell-based, ATP luminescence, mouse fibroblasts (AID 2010); format: functional;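 also: cells exposed to compound for about 90 hours before reading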
[23] = biological target: ATP-dependent molecular chaperone HSP82 (Candida albicans (strain WO-1) (Yeast), UniProt C4YTQ8); assay: loss of DOC-induced GRE-beta-galactosidase reporter signal, dose response, Hsp90 inhibitor project, S. cerevisiae, luminescence (AID 2400); format: functional, cell-based;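 also: beta-galactosidase luminescence from glucocorticoid response element reporter as proxy for Hsp90 function; inhibitor potency where signal loss means Hsp90 inhibition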
Sequence of ATP-dependent molecular chaperone HSP82 (C4YTQ8 whole entry): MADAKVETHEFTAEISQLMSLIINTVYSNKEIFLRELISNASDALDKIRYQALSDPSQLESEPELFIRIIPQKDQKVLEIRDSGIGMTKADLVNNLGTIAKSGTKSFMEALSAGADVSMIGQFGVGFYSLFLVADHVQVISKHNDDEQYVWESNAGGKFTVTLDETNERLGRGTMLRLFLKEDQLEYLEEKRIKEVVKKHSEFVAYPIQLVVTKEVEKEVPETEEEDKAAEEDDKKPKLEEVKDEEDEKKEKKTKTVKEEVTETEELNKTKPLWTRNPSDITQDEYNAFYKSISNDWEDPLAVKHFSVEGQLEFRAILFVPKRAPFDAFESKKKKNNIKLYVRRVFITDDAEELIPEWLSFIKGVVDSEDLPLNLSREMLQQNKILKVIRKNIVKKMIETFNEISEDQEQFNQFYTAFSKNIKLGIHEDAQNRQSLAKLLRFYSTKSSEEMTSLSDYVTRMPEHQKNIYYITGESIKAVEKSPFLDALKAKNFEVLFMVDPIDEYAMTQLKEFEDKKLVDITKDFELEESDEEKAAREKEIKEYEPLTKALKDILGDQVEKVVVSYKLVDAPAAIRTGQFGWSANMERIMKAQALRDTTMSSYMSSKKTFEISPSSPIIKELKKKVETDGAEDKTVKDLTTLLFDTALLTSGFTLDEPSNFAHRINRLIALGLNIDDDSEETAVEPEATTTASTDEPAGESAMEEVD

T1 sequence (Q9UBE0 whole entry): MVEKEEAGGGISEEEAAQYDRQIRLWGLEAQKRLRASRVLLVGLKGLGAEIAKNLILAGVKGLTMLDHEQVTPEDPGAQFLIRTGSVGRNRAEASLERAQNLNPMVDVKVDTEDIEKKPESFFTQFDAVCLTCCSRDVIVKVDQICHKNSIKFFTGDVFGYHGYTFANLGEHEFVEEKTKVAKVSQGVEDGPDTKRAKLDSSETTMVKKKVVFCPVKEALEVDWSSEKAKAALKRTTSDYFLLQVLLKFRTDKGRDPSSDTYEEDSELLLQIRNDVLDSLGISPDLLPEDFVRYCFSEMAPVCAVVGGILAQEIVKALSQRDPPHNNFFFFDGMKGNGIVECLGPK
T1 sequence (Q9UBT2 whole entry): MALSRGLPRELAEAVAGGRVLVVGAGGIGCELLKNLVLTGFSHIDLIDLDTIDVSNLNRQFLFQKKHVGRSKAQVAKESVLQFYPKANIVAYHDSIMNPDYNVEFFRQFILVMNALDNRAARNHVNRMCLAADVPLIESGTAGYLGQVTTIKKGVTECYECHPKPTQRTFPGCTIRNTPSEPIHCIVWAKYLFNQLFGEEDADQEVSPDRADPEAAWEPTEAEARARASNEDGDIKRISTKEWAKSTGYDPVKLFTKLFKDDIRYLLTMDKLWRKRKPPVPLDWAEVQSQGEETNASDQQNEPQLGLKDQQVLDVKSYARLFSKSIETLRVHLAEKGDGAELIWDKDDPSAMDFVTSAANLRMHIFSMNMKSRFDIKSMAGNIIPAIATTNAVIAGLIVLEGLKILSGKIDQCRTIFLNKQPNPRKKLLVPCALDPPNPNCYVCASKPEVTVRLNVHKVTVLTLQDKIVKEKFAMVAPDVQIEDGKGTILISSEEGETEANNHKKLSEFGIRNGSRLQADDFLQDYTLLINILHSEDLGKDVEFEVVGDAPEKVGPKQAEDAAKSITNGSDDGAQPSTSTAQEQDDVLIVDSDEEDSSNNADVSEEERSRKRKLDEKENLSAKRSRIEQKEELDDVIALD
Sequence of Dual specificity protein phosphatase 3 (P51452 whole entry): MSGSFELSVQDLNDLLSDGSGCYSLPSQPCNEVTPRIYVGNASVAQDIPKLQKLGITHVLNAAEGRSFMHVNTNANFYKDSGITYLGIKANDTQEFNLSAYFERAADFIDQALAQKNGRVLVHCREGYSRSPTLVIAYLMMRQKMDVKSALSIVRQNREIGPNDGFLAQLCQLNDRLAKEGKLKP
Sequence of Induced myeloid leukemia cell differentiation protein Mcl-1 (Q07820 whole entry): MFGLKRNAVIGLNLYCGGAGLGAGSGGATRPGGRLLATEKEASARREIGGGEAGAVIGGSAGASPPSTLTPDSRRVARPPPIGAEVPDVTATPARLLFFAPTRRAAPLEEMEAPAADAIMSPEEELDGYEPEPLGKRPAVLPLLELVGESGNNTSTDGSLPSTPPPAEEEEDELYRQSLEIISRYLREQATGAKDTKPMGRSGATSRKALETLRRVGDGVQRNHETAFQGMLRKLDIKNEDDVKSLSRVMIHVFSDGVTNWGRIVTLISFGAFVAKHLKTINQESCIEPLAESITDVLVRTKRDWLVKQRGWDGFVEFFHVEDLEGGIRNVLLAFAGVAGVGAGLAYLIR
Sequence of Potassium voltage-gated channel subfamily KQT member 2 (O88943 whole entry): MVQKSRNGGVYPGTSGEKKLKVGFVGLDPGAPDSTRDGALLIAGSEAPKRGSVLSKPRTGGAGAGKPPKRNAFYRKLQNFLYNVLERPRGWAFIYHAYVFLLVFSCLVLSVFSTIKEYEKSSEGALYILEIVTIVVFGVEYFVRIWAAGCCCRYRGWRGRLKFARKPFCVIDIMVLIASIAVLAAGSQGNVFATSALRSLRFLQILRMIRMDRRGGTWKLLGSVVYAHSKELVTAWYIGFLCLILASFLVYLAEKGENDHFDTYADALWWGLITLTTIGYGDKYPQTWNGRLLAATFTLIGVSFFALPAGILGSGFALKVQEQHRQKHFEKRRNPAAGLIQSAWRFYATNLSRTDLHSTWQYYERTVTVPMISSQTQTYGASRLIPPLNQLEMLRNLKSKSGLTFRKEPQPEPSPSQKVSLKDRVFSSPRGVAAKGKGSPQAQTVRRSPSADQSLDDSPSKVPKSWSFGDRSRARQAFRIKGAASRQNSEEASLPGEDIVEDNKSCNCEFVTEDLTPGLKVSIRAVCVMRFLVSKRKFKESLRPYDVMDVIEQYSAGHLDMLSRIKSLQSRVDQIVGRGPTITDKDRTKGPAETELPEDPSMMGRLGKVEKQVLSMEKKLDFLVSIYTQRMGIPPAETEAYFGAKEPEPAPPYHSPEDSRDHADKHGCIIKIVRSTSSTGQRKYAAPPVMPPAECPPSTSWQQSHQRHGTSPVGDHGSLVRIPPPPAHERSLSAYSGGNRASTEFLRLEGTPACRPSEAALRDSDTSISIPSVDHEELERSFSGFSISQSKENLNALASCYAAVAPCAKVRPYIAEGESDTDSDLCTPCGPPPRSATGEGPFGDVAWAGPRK
Sequence of DNA damage-inducible transcript 3 protein (P35639 whole entry): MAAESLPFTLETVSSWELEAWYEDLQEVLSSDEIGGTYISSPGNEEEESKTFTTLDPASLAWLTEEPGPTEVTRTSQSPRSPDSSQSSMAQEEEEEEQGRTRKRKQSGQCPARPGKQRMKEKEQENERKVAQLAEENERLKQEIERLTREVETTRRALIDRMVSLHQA
Sequence of Tyrosine-protein phosphatase non-receptor type 5 (P54829 whole entry): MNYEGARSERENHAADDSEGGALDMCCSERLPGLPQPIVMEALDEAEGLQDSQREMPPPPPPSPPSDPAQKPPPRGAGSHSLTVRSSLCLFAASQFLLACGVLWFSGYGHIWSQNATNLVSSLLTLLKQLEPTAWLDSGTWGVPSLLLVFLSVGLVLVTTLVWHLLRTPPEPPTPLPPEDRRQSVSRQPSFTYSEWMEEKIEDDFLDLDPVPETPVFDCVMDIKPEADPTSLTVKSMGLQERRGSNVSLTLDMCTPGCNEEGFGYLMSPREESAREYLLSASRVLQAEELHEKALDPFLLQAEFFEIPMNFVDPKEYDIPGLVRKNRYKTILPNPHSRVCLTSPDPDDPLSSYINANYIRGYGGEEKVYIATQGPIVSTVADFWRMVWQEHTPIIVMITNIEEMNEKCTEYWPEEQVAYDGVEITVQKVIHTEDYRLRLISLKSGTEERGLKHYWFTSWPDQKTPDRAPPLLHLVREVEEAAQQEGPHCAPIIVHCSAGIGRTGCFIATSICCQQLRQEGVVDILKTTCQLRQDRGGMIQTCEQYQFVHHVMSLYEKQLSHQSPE
Sequence of Tyrosine-protein phosphatase non-receptor type 11 (Q06124 whole entry, the tested form may be a part): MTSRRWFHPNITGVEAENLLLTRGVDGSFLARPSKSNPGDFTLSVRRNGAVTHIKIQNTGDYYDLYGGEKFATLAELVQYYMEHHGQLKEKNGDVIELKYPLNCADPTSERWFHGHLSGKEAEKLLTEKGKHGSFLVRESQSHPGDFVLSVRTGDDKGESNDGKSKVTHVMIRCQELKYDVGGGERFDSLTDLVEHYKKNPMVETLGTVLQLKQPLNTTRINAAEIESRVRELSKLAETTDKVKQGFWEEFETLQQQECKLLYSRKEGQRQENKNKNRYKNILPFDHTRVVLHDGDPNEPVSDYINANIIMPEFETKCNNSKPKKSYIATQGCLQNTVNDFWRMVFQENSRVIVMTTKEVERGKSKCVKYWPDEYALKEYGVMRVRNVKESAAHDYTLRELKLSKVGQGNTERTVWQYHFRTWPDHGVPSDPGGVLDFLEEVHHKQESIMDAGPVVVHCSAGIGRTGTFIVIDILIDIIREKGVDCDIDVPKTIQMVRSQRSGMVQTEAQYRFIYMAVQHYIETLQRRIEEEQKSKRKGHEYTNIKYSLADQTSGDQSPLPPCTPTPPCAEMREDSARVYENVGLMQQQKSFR
Sequence of Melanocortin receptor 4 (P32245 whole entry): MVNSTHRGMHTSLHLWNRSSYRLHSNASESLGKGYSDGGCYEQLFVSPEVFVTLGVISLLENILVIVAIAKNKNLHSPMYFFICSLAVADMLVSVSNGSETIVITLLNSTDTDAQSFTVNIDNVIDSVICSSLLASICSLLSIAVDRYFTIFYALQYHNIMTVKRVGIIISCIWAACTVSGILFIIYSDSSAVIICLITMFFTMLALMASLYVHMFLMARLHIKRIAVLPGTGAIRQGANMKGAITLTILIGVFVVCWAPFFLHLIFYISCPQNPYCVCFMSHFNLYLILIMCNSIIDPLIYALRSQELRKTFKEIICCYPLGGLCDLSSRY

O=C(O)c1ccccc1-c1ccccc1C(=O)Nc1ccc2c(c1)nc(O)c1ccccc12
AC50 [1]: 79.9 µM (active)

Cc1ccccc1OCCn1cc(C(=O)C(=O)N2CCOCC2)c2ccccc21
IC50 [2]: 8.84 µM (active)

O=C(N=Nc1c(O)n(Cc2ccccc2)c2ccccc12)c1cc2ccccc2cc1O
IC50 (SUMO-activating enzyme [3]): 12.3 µM (active) | Absolute IC50 (CHOP) [4]: 10 µM | IC50 (SUMO-activating enzyme [5]): 13.8 µM (active) | EC50 [6]: 4.96 µM (active) | AC50 (INS1): 7.06 µM (active) | IC50 [7]: 5.39 µM (active) | EC50 [8]: 5.03 µM (active) | EC50 (Melanocortin receptor 4): > 89.2 µM (inactive)

Cc1csc2c(=O)sc(NC(=O)c3ccc(F)cc3)nc12
EC50 [9]: > 55.7 µM (not active) | EC50 [10]: > 100 µM (inactive) | EC50 [11]: > 55.7 µM (not active)

CCN(c1ccccc1)S(=O)(=O)c1cc(C(=O)OCC(=O)c2c(N)n(C)c(=O)n(C)c2=O)ccc1C
IC50 [12]: 2.62 µM (active) | IC50 [13]: 30.9 µM (inactive) | IC50 [14]: 1.13 µM (active) | IC50 [15]: 3.71 µM (active)

COc1ccc(-c2nnc(NC(=O)c3ccc(S(=O)(=O)N4CCCc5ccccc54)cc3)o2)cc1
EC50 (Streptococcus): 855 nM (active) | EC50 [16]: > 180 µM (inactive) | AC50 [17]: 2.71 µM (active) | EC50 [18]: 795 nM (active) | EC50 [19]: 186 nM (active) | EC50 [20]: 32.9 µM (inconclusive) | AC50 (HEK293): 3.47 µM (active) | EC50 [21]: 326 nM (active) | EC50 [22]: 5.82 µM (active) | EC50 [23]: > 150 µM (inactive)

Source: ChEMBL document CHEMBL1201862, “PubChem BioAssay data set” (2004)
